The test system of experiment [1] is methicillin-sensitive Staphylococcus aureus. The experiment is described as follows: MIC by broth micro-dilution (CLSI), methicillin-sensitive S. aureus. Conditions: MSSA S. aureus ATCC29213. Type of experiment: cell-based. (Broth dilution looks for growth in wells or tubes with falling amounts of substance.)
For experiment [2], the system named is extended spectrum β lactamase (ESBL) SHV18 producing Klebsiella pneumoniae. Put plainly: MIC by broth micro-dilution (CLSI), ESBL SHV18 producing K. pneumoniae. The experiment is classed as cell-based. The note with it: Klebsiella pneumoniae, ATCC700603, 22 h, ESBL +ve (SHV-18) K. pneumoniae ATCC700603; read-out: MIC.
Experiment [3] deals with carbapenem sensitive Escherichia coli. The experiment is described as follows: MIC by broth micro-dilution (CLSI), carbapenem sensitive E. coli. Type of experiment: cell-based.
Experiment [4] deals with carbapenem sensitive Pseudomonas aeruginosa. Put plainly: MIC by broth micro-dilution (CLSI), carbapenem sensitive P. aeruginosa. The experiment is classed as cell-based.
For experiment [5], the system named is carbapenemase producing K. pneumoniae. Put plainly: MIC by broth micro-dilution (CLSI), carbapenemase producing K. pneumoniae. The experiment is classed as cell-based, Klebsiella pneumoniae.
Setting [6] is: Staphylococcus aureus, ATCC 29213 / MSSA, read-out: MIC.
Where [7] appears, read: Escherichia coli, ATCC25922, ESBL −ve E. coli ATCC25922, read-out: MIC.
Where [8] appears, read: Pseudomonas aeruginosa, ATCC27853, Meropenem susceptible P. aeruginosa ATCC27853, read-out: MIC.
The mark [9] stands for this setting: Klebsiella pneumoniae, ATCCBAA1705, KPC-2 K. pneumoniae ATCC BAA-1705, read-out: MIC.
[10] abbreviates: Meropenem susceptible P. aeruginosa ATCC27853.
Setting [11] is: KPC-2 K. pneumoniae ATCC BAA-1705.

Among the data in patent publication US11180504B2 (ORCHID PHARMA LTD., priority 2016, dated 2021) are MIC values, retold here.

≈ marks a conversion by molar mass, not a printed value. Where two headings read alike, the source gives them in different places.

Regarding `C[C@@H](NC(=O)C[S+]([O-])C(F)F)[C@H]1C(=O)N2C(C(=O)O)=C(S[C@@H]3CN[C@H](C(=O)N(C)C)C3)[C@H](C)[C@H]12` (mixture of isomers) [Example 82], the minimum inhibitory concentration (MIC) (commonly the lowest concentration found to suppress growth) is 8 µg/mL in experiment [1] (setting [6]); 2 µg/mL in experiment [2]; 1 µg/mL in experiment [3] (setting [7]); 128 µg/mL in experiment [4] (setting [8]); 8 µg/mL in experiment [5] (setting [9]).

As for `CC(F)C(=O)N[C@H](C)[C@H]1C(=O)N2C(C(=O)O)=C(S[C@@H]3CN[C@H](C(=O)N(C)C)C3)[C@H](C)[C@H]12` (mixture of isomers) [Example 84], the minimum inhibitory concentration (MIC) worked out at 4 µg/mL in experiment [1] (setting [6]); 4 µg/mL in experiment [2]; 1 µg/mL in experiment [3] (setting [7]); 128 µg/mL in experiment [4] (setting [8]); 16 µg/mL in experiment [5] (setting [9]).

As for `C[C@@H](NS(C)(=O)=O)[C@H]1C(=O)N2C(C(=O)O)=C(S[C@@H]3CN[C@H](C(=O)N4CCC(N)C4)C3)[C@H](C)[C@H]12` (stereo in doubt) [Example 362, (4R,5S,6S)-3-((3S,5S)-5-((R)-3-aminopyrrolidine-1-carbonyl)pyrrolidin-3-ylthio)-4-methyl-6-((R)-1-(methylsulfonamido)ethyl)-7-oxo-1-azabicyclo[3.2.0]hept-2-ene-2-carboxylic acid], the MIC in experiment [1] (setting [6]) was found to be 8 µg/mL (≈ 15.9 µM); in experiment [2] it was 4 µg/mL (≈ 7.97 µM); in experiment [3] (setting [7]), 0.25 µg/mL (≈ 0.498 µM); in experiment [4] (setting [8]), 4 µg/mL (≈ 7.97 µM); in experiment [5] (setting [9]), 4 µg/mL (≈ 7.97 µM).

Regarding `C[C@@H](NC(=O)Cn1cnnn1)[C@H]1C(=O)N2C(C(=O)O)=C(S[C@@H]3CN[C@H](C(=O)N4CC5C[C@@H](NC(=N)N)C[C@]5(CO)C4)C3)[C@H](C)[C@H]12` (stereo partly drawn) [Example 585, (4R,5S,6R)-6-((R)-1-(2-(1H-tetrazol-1-yl)acetamido)ethyl)-3-((3S,5S)-5-((3aR,5R)-5-guanidino-3a-(hydroxymethyl)octahydrocyclopenta[c]pyrrole-2-carbonyl)pyrrolidin-3-ylthio)-4-methyl-7-oxo-1-azabicyclo[3.2.0]hept-2-ene-2-carboxylic acid], the minimal inhibitory concentration (MIC) is 2 µg/mL (≈ 3.1 µM) in experiment [1] (setting [6]), 0.125 µg/mL (≈ 0.194 µM) in experiment [3] (setting [7]), 4 µg/mL (≈ 6.19 µM) in experiment [4] (setting [8]) and 1 µg/mL (≈ 1.55 µM) in experiment [5] (setting [9]).

`CNCC(=O)N[C@H](C)[C@H]1C(=O)N2C(C(=O)O)=C(S[C@@H]3CN[C@H](C(=O)N4C[C@@H](O)[C@H](NC(=N)N)C4)C3)[C@H](C)[C@H]12` [Example 588, (4R,5S,6R)-3-((3S,5S)-5-((3R,4R)-3-guanidino-4-hydroxypyrrolidine-1-carbonyl)pyrrolidin-3-ylthio)-4-methyl-6-((R)-1-(2-(methylamino)acetamido)ethyl)-7-oxo-1-azabicyclo[3.2.0]hept-2-ene-2-carboxylic acid]: the MIC in experiment [1] (setting [6]) came out at 32 µg/mL (≈ 57.9 µM); in experiment [3] (setting [7]), 4 µg/mL (≈ 7.24 µM); in experiment [4] (setting [8]), 4 µg/mL (≈ 7.24 µM); in experiment [5] (setting [9]), 4 µg/mL (≈ 7.24 µM).

As to `C[C@@H](NC(=O)Cn1cnnn1)[C@H]1C(=O)N2C(C(=O)O)=C(S[C@@H]3CN[C@H](CNC(=N)N)C3)[C@H](C)[C@H]12` [Example 589, (4R,5S,6R)-6-((R)-1-(2-(1H-tetrazol-1-yl)acetamido)ethyl)-3-((3S,5S)-5-(guanidinomethyl)pyrrolidin-3-ylthio)-4-methyl-7-oxo-1-azabicyclo[3.2.0]hept-2-ene-2-carboxylic acid], the minimum inhibitory concentration (MIC) in experiment [1] (setting [6]) was 4 µg/mL (≈ 8.12 µM); in experiment [3] (setting [7]), 0.5 µg/mL (≈ 1.02 µM); in experiment [4] (setting [8]), 16 µg/mL (≈ 32.5 µM); in experiment [5] (setting [9]), 2 µg/mL (≈ 4.06 µM).

With `C[C@@H](NC(=O)Cn1cnnn1)[C@H]1C(=O)N2C(C(=O)O)=C(S[C@@H]3CN[C@H](C(=O)N4CC5CNC5C4)C3)[C@H](C)[C@H]12` (stereo partly drawn) [Example 591, (4R,5S,6R)-6-((R)-1-(2-(1H-tetrazol-1-yl)acetamido)ethyl)-3-((3S,5S)-5-(3,6-diazabicyclo[3.2.0]heptane-3-carbonyl)pyrrolidin-3-ylthio)-4-methyl-7-oxo-1-azabicyclo[3.2.0]hept-2-ene-2-carboxylic acid], the MIC in experiment [1] turned out to be 2 µg/mL (≈ 3.67 µM); in experiment [3] (ESBL −ve E. coli ATCC25922), 0.25 µg/mL (≈ 0.458 µM); in experiment [4] (setting [10]) it was 1 µg/mL (≈ 1.83 µM); in experiment [5] (setting [11]), 1 µg/mL (≈ 1.83 µM).

For `C[C@@H](NC(=O)Cn1cnnn1)[C@H]1C(=O)N2C(C(=O)O)=C(S[C@@H]3CN[C@H](C(=O)N4C[C@H](CO)[C@@H](NC(=N)N)C4)C3)[C@H](C)[C@H]12` [Example 592, (4R,5S,6R)-6-((R)-1-(2-(1H-tetrazol-1-yl)acetamido)ethyl)-3-((3S,5S)-5-((3R,4S)-3-guanidino-4-diazabicyclo[3.2.0]heptane-3-(hydroxymethyl)pyrrolidine-1-carbonyl)pyrrolidin-3-ylthio)-4-methyl-7-oxo-1-azabicyclo[3.2.0]hept-2-ene-2-carboxylic acid], the MIC in experiment [1] (setting [6]) is 2 µg/mL (≈ 3.3 µM); in experiment [3] (setting [7]), 0.125 µg/mL (≈ 0.206 µM); in experiment [4] (setting [8]), 0.5 µg/mL (≈ 0.826 µM); in experiment [5] (setting [9]), 0.5 µg/mL (≈ 0.826 µM).

For the compound `C[C@@H](NC(=O)Cn1cnnn1)[C@H]1C(=O)N2C(C(=O)O)=C(Sc3cnn(C[C@@H]4CCNC4)c3)[C@H](C)[C@H]12` [Example 593, (4R,5S,6R)-6-((R)-1-(2-(1H-tetrazol-1-yl)acetamido)ethyl)-4-methyl-7-oxo-3-(1-((R)-pyrrolidin-3-ylmethyl)-1H-pyrazol-4-ylthio)-1-azabicyclo[3.2.0]hept-2-ene-2-carboxylic acid], the minimum inhibitory concentration (MIC) in experiment [1] (setting [6]) is 16 µg/mL (≈ 31.9 µM); in experiment [3] (setting [7]) it was 1 µg/mL (≈ 1.99 µM); in experiment [4] (setting [8]), 128 µg/mL (≈ 255 µM); in experiment [5] (setting [9]), 32 µg/mL (≈ 63.8 µM).

For the compound `C[C@@H](NC(=O)Cn1cnnn1)[C@H]1C(=O)N2C(C(=O)[O-])=C(Sc3cnn(CC4CC[N+](C)(CCN)CC4)c3)[C@H](C)[C@H]12` (stereo partly drawn) [Example 594, (4R,5S,6R)-6-((R)-1-(2-(1H-tetrazol-1-yl)acetamido)ethyl)-3-(1-((1-(2-aminoethyl)-1-methylpiperidinium-4-yl)methyl)-1H-pyrazol-4-ylthio)-4-methyl-7-oxo-1-azabicyclo[3.2.0]hept-2-ene-2-carboxylate], the MIC in experiment [1] (setting [6]) was 1 µg/mL (≈ 1.75 µM); in experiment [3] (setting [7]), 32 µg/mL (≈ 55.9 µM); in experiment [4] (setting [8]), above 128 µg/mL; in experiment [5] (setting [9]), above 128 µg/mL.

Take `C[C@@H](NC(=O)Cn1cnnn1)[C@H]1C(=O)N2C(C(=O)[O-])=C(SCc3ccc(-c4cn(CCCN)[n+](C)c4)cc3)[C@H](C)[C@H]12` [Example 596, (4R,5S,6R)-6-((R)-1-(2-(1H-tetrazol-1-yl)acetamido)ethyl)-3-(4-(1-(3-aminopropyl)-2-methyl-1H-pyrazol-2-ium-4-yl)benzylthio)-4-methyl-7-oxo-1-azabicyclo[3.2.0]hept-2-ene-2-carboxylate]: the MIC is 2 µg/mL (≈ 3.45 µM) in experiment [1] (setting [6]), 1 µg/mL (≈ 1.73 µM) in experiment [3] (setting [7]), 32 µg/mL (≈ 55.2 µM) in experiment [4] (setting [8]) and 16 µg/mL (≈ 27.6 µM) in experiment [5] (setting [9]).

As for `C[C@@H](NC(=O)Cn1cnnn1)[C@H]1C(=O)N2C(C(=O)[O-])=C(Sc3cn(C[C@@H]4CCNC4)[n+](C)c3)[C@H](C)[C@H]12` [Example 597, (4R,5S,6R)-6-((R)-1-(2-(1H-tetrazol-1-yl)acetamido)ethyl)-4-methyl-3-(2-methyl-1-((R)-pyrrolidin-3-ylmethyl)-1H-pyrazol-2-ium-4-ylthio)-7-oxo-1-azabicyclo[3.2.0]hept-2-ene-2-carboxylate], the MIC in experiment [1] (setting [6]) stood at 4 µg/mL (≈ 7.76 µM); in experiment [3] (setting [7]) it was 4 µg/mL (≈ 7.76 µM); in experiment [4] (setting [8]), 32 µg/mL (≈ 62.1 µM); in experiment [5] (setting [9]) it was 32 µg/mL (≈ 62.1 µM).

In the case of `C[C@@H](NC(=O)Cn1cnnn1)[C@H]1C(=O)N2C(C(=O)[O-])=C(S[C@@H]3CN[C@H](C(=O)N4CCC5C[N+](C)(C)CCC54)C3)[C@H](C)[C@H]12` (stereo partly shown) [Example 598], the MIC in experiment [1] (Staphylococcus aureus, ATCC29213|MSSA, read-out: MIC) was 8 µg/mL (≈ 13.3 µM); in experiment [3] (setting [7]) it was 1 µg/mL (≈ 1.66 µM); in experiment [4] (setting [10]), 16 µg/mL (≈ 26.6 µM); in experiment [5] (setting [9]), 2 µg/mL (≈ 3.32 µM).

For `C[C@@H](NC(=O)Cn1cnnn1)[C@H]1C(=O)N2C(C(=O)[O-])=C(S[C@@H]3CN[C@H](C(=O)N4CCC5C[N+](C)(C)CCC54)C3)[C@H](C)[C@H]12` (stereo partly shown) [Example 599], the MIC in experiment [1] was 4 µg/mL (≈ 6.65 µM); in experiment [3] (ESBL −ve E. coli ATCC25922), 1 µg/mL (≈ 1.66 µM); in experiment [4] (setting [10]), 4 µg/mL (≈ 6.65 µM); in experiment [5] (setting [11]), 2 µg/mL (≈ 3.32 µM).

Turning to `C[C@@H](NC(=O)Cn1cnnn1)[C@H]1C(=O)N2C(C(=O)O)=C(CN3C[C@H](NC(=N)N)[C@@H](O)C3)[C@H](C)[C@H]12` [Example 600, (4S,5R,6R)-6-((R)-1-(2-(1H-tetrazol-1-yl)acetamido)ethyl)-3-(((3S,4S)-3-guanidino-4-hydroxypyrrolidin-1-yl)methyl)-4-methyl-7-oxo-1-azabicyclo[3.2.0]hept-2-ene-2-carboxylic acid], the minimal inhibitory concentration (MIC) amounted to 0.5 µg/mL (≈ 1.05 µM) in experiment [1] (setting [6]), 0.5 µg/mL (≈ 1.05 µM) in experiment [3] (setting [7]), 16 µg/mL (≈ 33.6 µM) in experiment [4] (setting [8]) and 4 µg/mL (≈ 8.39 µM) in experiment [5] (setting [9]).

For the compound `C[C@@H](NC(=O)Cn1cnnn1)[C@H]1C(=O)N2C(C(=O)O)=C(S[C@@H]3CN[C@H](C(=O)N4CCC5CNCCC54)C3)C[C@H]12` (stereo partly drawn) [Example 601, (5R,6R)-6-((R)-1-(2-(1H-tetrazol-1-yl)acetamido)ethyl)-3-((3S,5S)-5-(octahydro-1H-pyrrolo[3,2-c]pyridine-1-carbonyl)pyrrolidin-3-ylthio)-7-oxo-1-azabicyclo[3.2.0]hept-2-ene-2-carboxylic acid], the MIC came to 2 µg/mL (≈ 3.57 µM) in experiment [1] (setting [6]), 2 µg/mL (≈ 3.57 µM) in experiment [3] (setting [7]), 128 µg/mL (≈ 229 µM) in experiment [4] (setting [8]) and 64 µg/mL (≈ 114 µM) in experiment [5] (setting [9]).
